As a reminder, the kinetic solubility is the concentration staying in solution when a stock, usually in DMSO, is diluted into the medium. A word on the Ki: it is the dissociation constant of the complex between target and ligand, obtained from inhibition or displacement. What is called IC50 is the concentration that inhibits the measured activity by half.

Here are results for one compound from PMC12526156, “Optimization of the Macrocyclic Tetrapeptide [D-Trp]CJ-15,208 to Prevent Stress-Induced Relapse of Cocaine-Seeking Behavior” (Molecules, 2025).

≈ marks a conversion by molar mass, not a printed value. Where a SMILES comes first, the peptide text is derived from it. [ ]: non-standard residue; d: D form.

Series [1] in a line: Kinetic aqueous solubility. Type of series: physicochemical. To be noted: 1% DMSO, pH 7.4. An excerpt: Table A1 Stability of [D-Trp]- and [D-Phe^4]CJ-15,208 and selected analogs in human (HLMs) and mouse liver microsomes (MLMs)^1. and kinetic aqueous solubility. | column: Solubility ^2 / (µM)
Series [2] is described as follows: Metabolic stability in human liver microsomes. Type of series: in vitro ADME. To be noted: human liver microsomes, 1 mg protein/mL. How it is done:
(§1) Evaluation of the metabolic stability of the macrocyclic tetrapeptides by human and mouse liver microsomes was performed by Curia Global (Buffalo, NY, USA). […]
In general terms: Liver microsomes are a subcellular fraction often used to study metabolism.

Series [3] has as its target T1, hKOR (Homo sapiens, UniProt P41145). Nature of the series: Competition binding, [3H]U69,593, hKOR-CHO membranes.
In series [4] the target is T2, human MOR (Homo sapiens, UniProt P35372).
T2 construct: expressed in transfected cells
Nature of the series: biochemical. Type of series: binding.

The target in series [5] is T1, hKOR. Nature of the series: KOR cAMP assay using GloSensor-22F, antagonist mode (vs 10 nM U50,488). The series is classed as cell-based. An excerpt:
A piggy-Bac (PB) transposon/transposase system was utilized to allow for the stable integration of the GloSensor-22F cAMP sensor (Promega, Madison, WI, USA) gene into genomic TTAA sites in Chinese hamster ovary cells already stably expressing the hKOR. The pFastBac hyperPB plasmid vector, which codes for the piggy-Bac transposon/transposase system, was utilized and was a kind gift from Dr. John Lueck. The multicistronic expression cassette developed for our experiments consisted of a CMV promoter driving constitutive expression of GloSensor-22F cAMP sensor, followed by an internal ribosome entry site (IRES) to drive the expression of codon-optimized HygR-P2A-mScarlet (hygromycin resistance gene and mScarlet separated by a 2A self-cleaving peptide element). To clone the expression cassette onto the pFastBac vector, the CMV promoter and GloSensor-22F were PCR amplified from pGloSensor-22F cAMP Plasmid (Promega), the IRES sequence was PCR amplified from pLVX-CMV-Galpha-oA ONE-GO (a gift from Dr. Mikel Garcia-Marcos, Addgene plasmid #189732), the HygR-P2A-mScarlet sequence was a kind gift from Dr. Lueck, and a bGH-poly(A) termination sequence was PCR amplified from pcDNA3.1(+). The pFastBac vector was linearized via overnight digestion with CspCI at 37 °C, which cuts between two inverted terminal repeat (ITR) sequences, and the corresponding backbone and all PCR fragments were gel purified and assembled via Gibson assembly using the Gibson Assembly MasterMix (New England Biolabs, Ipswich, MA, USA). The resulting pFastBac CMV GloSensor-22F IRES HygR-P2A-mScarlet bGH plasmid was transformed into NEB Stable Competent E. coli (New England Biolabs), miniprepped using the E.Z.N.A. Plasmid DNA Mini Kit (Omega Bio-Tek, Norcross, GA, USA), and sequence verified by nanopore whole-plasmid sequencing (Eurofins Genomics, Louisville, KY, USA).
3.0 × 10^6 hKOR-CHO cells were plated on a 6 cm dish and incubated for four h at 37 °C and 5% CO2 in DMEM (Corning Mediatech, Manassas, VA, USA) supplemented with 5% FBS (Corning Mediatech), 1% Penicillin/Streptomycin (Gibco, Waltham, MA, USA). The cells were then transfected with 2.0 μg pFastBac CMV GloSensor-22F IRES HygR-P2A-mScarlet bGH using PEI as a transfection reagent. The following day, transfected cells were reseeded onto a 10 cm dish at a density of 5.0 × 10^5 cells and 600 μg/mL hygromycin B (Gold Bio, St. Louis, MO, USA) was added to the culture media. Cells were cultured under selection antibiotics for seven days, and the selection process was monitored by the increase in abundance of mScarlet positive cells via epifluorescence microscopy.
Following the selection period, KOR-CHO-GLO cells were maintained at 37 °C and 5% CO2 in DMEM supplemented with 5% FBS, 1% Penicillin/Streptomycin and 300 μg/mL hygromycin B to reduce the likelihood of CMV promoter silencing. On the day of the assay, cells were detached with 0.05% trypsin (Gibco) and counted, then centrifuged (1000× g, 5 min) and resuspended in assay buffer (1xPBS, 0.1% glucose, 0.5 mM MgCl2) containing 4 mM D-luciferin substrate (Gold Bio) at approximately 2 million cells/mL. 25 μL of cells (~50,000/well) were seeded onto poly L-lysine-coated white 96-well flat bottom plates (Greiner Bio-One, Kremsmünster, Austria)) and returned to the incubator for 60 min. Following incubation, cells were allowed to equilibrate to room temperature protected from light (10–15 min). Initial luminescence readings (at least 10 cycles) were collected for each well using a FLUOstar Omega v.6.2 plate reader (BMG Labtech, Ortenberg, Germany), after which the plate was removed. Prepared 4x treatments of drug (25 μL) were added to appropriate wells followed by 50 μL of 20 μM forskolin (AmBeed, Buffalo Grove, IL, USA) before the plate was returned to the reader and luminescence measured until final plateau levels were achieved (20–30 min). Assays were performed in duplicate and repeated at least three times.
For orientation: Cyclic AMP is a second messenger, typically raised through Gs and lowered through Gi signalling.

In series [6] the target is KOR. Details: method as in PMID 37765026. The following applies: cited from earlier work.
Series [7] can be described thus: Metabolic stability in mouse liver microsomes. The following applies: mouse liver microsomes, 1 mg protein/mL. Type of series: in vitro ADME. How it is done:
as §1

Series [8] concerns the target T1, hKOR. Description: KOR cAMP assay using GloSensor-22F, agonist mode (KOR-CHO-GLO cells). To be noted: read-out: KOR Efficacy (%). The series is classed as cell-based.
For series [9], the system named is C57BL/6J mice. Further details: method as in PMID 23425081. The following applies: cited from earlier work.

`O=C1N[C@H](Cc2c[nH]c3ccccc23)C(=O)N[C@@H](Cc2ccccc2)C(=O)N2CCC[C@@H]2C(=O)N[C@H]1Cc1ccccc1` [Analog 1, cyclo[Phe-D-Pro-Phe-D-Trp]] (cyclo(F[dP]F[dW])) returned a kinetic solubility in [1] of 23 µM (≈ 13.3 µg/mL). In addition, the half-life at 1 µM in series [2] (1 µM compound, 37 °C, read-out: HLM t1/2) turned out to be 5.5 min; in [7] (1 µM compound, 37 °C, read-out: MLM t1/2), 2.6 min. The values for the microsomal CLint at 1 µM in [2] (read-out: HLM CLint) and in [7] (read-out: MLM CLint) were 127 µL/min/mg and 269 µL/min/mg, respectively. For the same compound, the Ki was 6.9 ± 1.1 nM in series [3], 58 ± 7.5 nM in series [4] and 21.8 nM in series [6]. In [3], the “Selectivity (MOR Ki/KOR Ki)” value came out at 8. In series [5], this compound registered a 50% inhibitory concentration (IC50) of 66 ± 11 nM. Besides, the Emax at 10 µM in series [8] stood at 16 ± 2.4%. Besides, in series [9], the “dose required to prevent stress-induced reinstatement” value was 60 mg/kg, p.o.
